Data published in patent US6352992B1, “Endothelin antagonist and beta receptor blocking agent as combined preparations” (Abbott Laboratories, priority 1997, dated 2002).

Test system: normotensive awake dogs
Experiment: Mean arterial blood pressure in normotensive awake dogs after oral administration
Assay type: in vivo, beagle dogs
Details: Compound A 10 mg/kg, bucindolol 0.1 mg/kg; for mean arterial blood pressure, change with respect to the initial value: combination 10 + 0.1 mg/kg, mean values
Procedure: In a crossover design, the test substance was administered orally as a capsule to chronically instrumented male beagle dogs (approx 14 kg). The capsule either contained nothing (control N=5), compound A (10 mg/kg, N=10), bucindolol (0.1 mg/kg; N=5) or the combination bucindolol + compound A (0.1+10 mg/kg; N=5). In between the individual administrations, a washing phase of at least one week was observed. The systolic and the diastolic blood pressure were measured using a Statham Transducer P 23 Db, from which the mean arterial blood pressure was calculated. The blood pressure was recorded for 6 h (MI^2, Modular Instrumente, USA).
Development of the mean arterial blood pressure (mmHg, change with respect to the initial value) in normotensive awake dogs after oral administration of different substances, what is shown are the mean values

SMILES: CC(C)(Cc1c[nH]c2ccccc12)NCC(O)COc1ccccc1C#N (stereo not shown) [Bucindolol, bucindolol]
- mean arterial blood pressure, change with respect to the initial value (1h after oral capsule): −0.8 mmHg
- mean arterial blood pressure, change with respect to the initial value (2h after oral capsule): −3.8 mmHg
- mean arterial blood pressure, change with respect to the initial value (3h after oral capsule): −3.4 mmHg
- mean arterial blood pressure, change with respect to the initial value (4h after oral capsule): −3.8 mmHg
- mean arterial blood pressure, change with respect to the initial value (5h after oral capsule): −3.8 mmHg
- mean arterial blood pressure, change with respect to the initial value (6h after oral capsule): −1.4 mmHg
- effect on blood pressure, in words (oral capsule, recorded for 6 h, combination 0.1+10 mg/kg): does not decrease
